Test results taken from patent US20230257376A1, “ROCK INHIBITOR, AND PREPARATION METHOD THEREFOR AND USE THEREOF” (WUHAN LL SCIENCE AND TECHNOLOGY DEVELOPMENT CO., LTD., priority 2020, published 2023).

Assays:
ROCK2 kinase = target: T1, ROCK2 kinase (Homo sapiens, UniProt O75116); test: In vitro evaluation of ROCK2 kinase activity (HTRF KinEASE-STK time-resolved fluorometric assay); type: biochemical; details: ROCK2 kinase 0.4 ng/μL, ATP 6.739 μM
T1 construct: purchased Invitrogen PV3759
Method: ROCK2 activity screening. ROCK2 activity was detected using a 96-well (Cisbio) time-resolved fluorometric assay. The assay for ROCK2 was performed in the following assay buffer: 5 mM MgCl2 (Sigma), 1 mM DTT (Sigma) and 1× kinase buffer. The kinase buffer was used for dilution. 7.5 μL of ROCK2 kinase (Invitrogen, PV3759) was added to a 96-well microplate to reach a final concentration of 0.4 ng/μL, and then 0.25 μL of test compound (DMSO content: 1% (volume fraction)) was added. The mixture was incubated at room temperature for 0.5 h. To start the reaction, the kinase buffer was used to mix ATP (Aladdin) and the substrate STK-substrate 2-biotin. 7.5 μL of the mixed solution was added to the microplate to reach final concentrations of 6.739 μM and 1 μM. The resulting mixture was incubated at room temperature for 2 h. 5 mL of detection buffer was mixed with STK antibody-Cryptate, and then an appropriate volume of the mixture was mixed with an equal volume of streptavidin-XL665. 10 μL of the resulting mixture was added to the microplate to stop the reaction. After further incubation for about 1 h, the microplate was read on a Molecular Devices SpectraMax i3x multifunctional microplate reader. The kinase buffer, the STK-substrate 2-biotin, the detection buffer, the STK antibody-Cryptate, and the streptavidin-XL665 were all from HTRF KinEASE-STK kit (Cisbio, 1000 tests, 61GSTXLA).

ROCK1 kinase = target: T2, ROCK1 kinase (Homo sapiens, UniProt Q13464); test: In vitro evaluation of ROCK1 kinase selectivity (HTRF KinEASE-STK time-resolved fluorometric assay); type: biochemical; details: ROCK1 kinase 0.4 ng/μL, ATP 3.53 μM
T2 construct: purchased Invitrogen
T2 sequence (Q13464 whole entry): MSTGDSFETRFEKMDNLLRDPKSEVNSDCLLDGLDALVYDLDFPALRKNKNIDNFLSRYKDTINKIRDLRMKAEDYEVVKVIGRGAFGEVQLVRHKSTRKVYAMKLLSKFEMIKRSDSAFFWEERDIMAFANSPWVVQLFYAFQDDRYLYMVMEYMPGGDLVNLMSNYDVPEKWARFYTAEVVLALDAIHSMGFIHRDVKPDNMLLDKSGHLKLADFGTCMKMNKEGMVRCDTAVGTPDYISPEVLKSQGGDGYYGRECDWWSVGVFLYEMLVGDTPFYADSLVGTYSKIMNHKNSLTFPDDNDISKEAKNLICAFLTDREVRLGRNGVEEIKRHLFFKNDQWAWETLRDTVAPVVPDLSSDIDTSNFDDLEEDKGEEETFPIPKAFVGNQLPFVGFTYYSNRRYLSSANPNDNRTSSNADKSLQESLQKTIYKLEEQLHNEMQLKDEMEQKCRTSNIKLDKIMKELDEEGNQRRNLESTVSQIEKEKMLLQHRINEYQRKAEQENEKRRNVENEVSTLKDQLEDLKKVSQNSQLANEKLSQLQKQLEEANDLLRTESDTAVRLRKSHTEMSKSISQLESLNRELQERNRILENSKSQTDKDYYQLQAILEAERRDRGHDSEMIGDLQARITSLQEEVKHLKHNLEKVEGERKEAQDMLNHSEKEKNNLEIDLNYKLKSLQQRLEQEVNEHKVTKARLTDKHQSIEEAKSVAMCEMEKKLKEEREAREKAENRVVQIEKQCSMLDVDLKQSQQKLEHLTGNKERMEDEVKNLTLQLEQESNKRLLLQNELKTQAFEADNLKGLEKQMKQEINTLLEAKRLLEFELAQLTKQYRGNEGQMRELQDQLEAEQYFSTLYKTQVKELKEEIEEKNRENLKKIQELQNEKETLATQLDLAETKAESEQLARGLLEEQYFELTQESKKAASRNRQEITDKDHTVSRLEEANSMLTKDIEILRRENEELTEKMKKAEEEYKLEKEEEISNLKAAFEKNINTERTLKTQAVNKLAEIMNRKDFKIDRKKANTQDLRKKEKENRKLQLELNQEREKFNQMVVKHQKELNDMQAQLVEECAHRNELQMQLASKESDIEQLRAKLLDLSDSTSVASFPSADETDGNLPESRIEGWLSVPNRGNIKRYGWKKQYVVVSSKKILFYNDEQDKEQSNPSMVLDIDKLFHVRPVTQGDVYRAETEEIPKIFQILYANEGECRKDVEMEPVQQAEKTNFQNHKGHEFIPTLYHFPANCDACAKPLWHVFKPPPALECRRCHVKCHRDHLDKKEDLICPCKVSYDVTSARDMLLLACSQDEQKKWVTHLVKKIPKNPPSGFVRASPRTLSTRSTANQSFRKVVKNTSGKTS
Method: ROCK1 activity was detected using a 96-well (Cisbio) time-resolved fluorometric assay. The assay for ROCK1 was performed in the following assay buffer: 5 mM MgCl2 (Sigma), 1 mM DTT (Sigma) and 1× kinase buffer. The kinase buffer was used for dilution. 7.5 μL of ROCK1 kinase (Invitrogen) was added to a 96-well microplate to reach a final concentration of 0.4 ng/μL, and then 0.25 μL of test compound (DMSO content: 1%) was added. The mixture was incubated at room temperature for 0.5 h. To start the reaction, the kinase buffer was also used to mix ATP (Aladdin) and the substrate STK-substrate 2-biotin. 7.5 μL of the mixed solution was added to the microplate to reach final concentrations of 3.53 μM and 1 μM. The resulting mixture was incubated at room temperature for 2 h. 5 mL of detection buffer was mixed with STK antibody-Cryptate, and then an appropriate volume of the mixture was mixed with an equal volume of streptavidin-XL665. 10 μL of the resulting mixture was added to stop the reaction. After further incubation for about 1 h, the microplate was read on a Molecular Devices SpectraMax i3x multifunctional microplate reader. The kinase buffer, the STK-substrate 2-biotin, the detection buffer, the STK antibody-Cryptate, and the streptavidin-XL665 were all from HTRF KinEASE-STK kit (Cisbio, 1000 tests, 61GSTXLA).

T1 sequence (O75116 whole entry): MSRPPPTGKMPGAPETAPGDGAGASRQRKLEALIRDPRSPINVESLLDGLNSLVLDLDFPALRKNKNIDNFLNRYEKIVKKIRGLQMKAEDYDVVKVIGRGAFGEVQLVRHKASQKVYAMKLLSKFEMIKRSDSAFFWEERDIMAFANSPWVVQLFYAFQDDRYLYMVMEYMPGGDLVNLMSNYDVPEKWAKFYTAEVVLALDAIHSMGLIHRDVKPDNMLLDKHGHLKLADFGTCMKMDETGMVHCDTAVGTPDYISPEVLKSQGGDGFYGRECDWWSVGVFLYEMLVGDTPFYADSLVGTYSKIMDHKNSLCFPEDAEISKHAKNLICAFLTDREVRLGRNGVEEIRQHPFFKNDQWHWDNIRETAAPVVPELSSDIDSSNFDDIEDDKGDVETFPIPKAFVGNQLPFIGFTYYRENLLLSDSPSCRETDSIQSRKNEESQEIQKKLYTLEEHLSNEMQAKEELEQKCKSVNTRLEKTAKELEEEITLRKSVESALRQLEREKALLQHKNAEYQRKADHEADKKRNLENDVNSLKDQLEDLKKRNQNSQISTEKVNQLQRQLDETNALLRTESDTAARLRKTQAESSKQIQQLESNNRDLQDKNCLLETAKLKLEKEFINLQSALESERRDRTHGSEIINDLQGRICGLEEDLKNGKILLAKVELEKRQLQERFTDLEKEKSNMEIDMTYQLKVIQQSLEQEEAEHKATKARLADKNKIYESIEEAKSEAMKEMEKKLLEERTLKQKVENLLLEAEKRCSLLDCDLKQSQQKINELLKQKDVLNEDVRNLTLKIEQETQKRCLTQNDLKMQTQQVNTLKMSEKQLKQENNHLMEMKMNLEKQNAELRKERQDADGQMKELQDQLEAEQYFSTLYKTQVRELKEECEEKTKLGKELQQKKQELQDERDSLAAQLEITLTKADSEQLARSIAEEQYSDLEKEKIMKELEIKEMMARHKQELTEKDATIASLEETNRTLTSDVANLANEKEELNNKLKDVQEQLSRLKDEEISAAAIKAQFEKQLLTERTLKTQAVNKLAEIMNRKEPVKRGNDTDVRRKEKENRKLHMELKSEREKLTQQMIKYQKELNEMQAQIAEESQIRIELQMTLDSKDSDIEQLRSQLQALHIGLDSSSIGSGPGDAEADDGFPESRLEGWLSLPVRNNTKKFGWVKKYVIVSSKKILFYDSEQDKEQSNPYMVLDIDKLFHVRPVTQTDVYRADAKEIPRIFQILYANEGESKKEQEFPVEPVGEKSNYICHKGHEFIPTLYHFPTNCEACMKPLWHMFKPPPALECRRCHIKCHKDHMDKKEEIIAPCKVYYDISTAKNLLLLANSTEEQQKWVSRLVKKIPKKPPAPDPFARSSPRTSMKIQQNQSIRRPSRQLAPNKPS

Row | SMILES | IC50 (ROCK2 kinase) [nM] | IC50 (ROCK1 kinase) [nM]
1 | Cn1c(C(=O)O)cc2c1CN(c1nccc(Nc3ccc(-c4cn[nH]c4)cc3)n1)CC2 [Compound L001, 6-(4-((4-(1H-pyrazol-4-yl)phenyl)amino)pyrimidin-2-yl)-1-methyl-4,5,6,7-tetrahydro-1H-pyrrolo[2,3-c]pyridine-2-carboxylic Acid] | > 4500 | 
2 | O=C(O)c1cn2c(n1)CN(c1nccc(Nc3ccc(-c4cn[nH]c4)cc3)n1)CC2 [Compound L002, 7-(4-((4-(1H-pyrazol-4-yl)phenyl)amino)pyrimidin-2-yl)-5,6,7,8-tetrahydroimidazo[1,2-a]pyrazine-2-carboxylic Acid] | > 4500 | 
3 | O=C(c1cc2n(n1)CCN(c1nccc(Nc3ccc(-c4cn[nH]c4)cc3)n1)C2)N1CC(F)(F)C1 [Compound L003, (5-(4-((4-(1H-pyrazol-4-yl)phenyl)amino)pyrimidin-2-yl)-4,5,6,7-tetrahydropyrazolo[1,5-a]pyrazin-2-yl)(3,3-difluoroazetidin-1-yl)methanone] | > 4500 | 
4 | Cn1c(C(=O)NC2CC(F)(F)C2)cc2c1CN(c1nccc(Nc3ccc(-c4cn[nH]c4)cc3)n1)CC2 [Compound L004, 6-(4-((4-(1H-pyrazol-4-yl)phenyl)amino)pyrimidin-2-yl)-N-(3,3-difluorocyclobutyl)-1-methyl-4,5,6,7-tetrahydro-1H-pyrrolo[2,3-c]pyridine-2-carboxamide] | 50 to 500 | 500 to 4500
5 | Cn1c(C(=O)N2CC(F)(F)C2)cc2c1CN(c1nccc(Nc3ccc4[nH]ncc4c3)n1)CC2 [Compound L006, (6-(4-((1H-indazol-5-yl)amino)pyrimidin-2-yl)-1-methyl-4,5,6,7-tetrahydro-1H-pyrrol[2,3-c]pyridin-2-yl)(3,3-difluoroazetidin-1-yl)methanone] | 50 to 500 | 500 to 4500
6 | Cn1c(C(=O)N2CC(F)(F)C2)cc2c1CN(c1nccc(Nc3ccc(Oc4ncccc4C(N)=O)c(F)c3)n1)CC2 [Compound L007, 2-(4-((2-(2-(3,3-difluoroazetidin-1-carbonyl)-1-methyl-1,4,5,7-tetrahydro-6H-pyrrolo[2,3-c]pyridin-6-yl)pyrimidin-4-yl)amino)-2-fluorophenoxy)nicotinamide] | 500 to 4500 | 
7 | O=C(NC1CC(F)(F)C1)c1cn2c(n1)CN(c1nccc(Nc3ccc(-c4cn[nH]c4)cc3)n1)CC2 [Compound L008, 7-(4-((4-(1H-pyrazol-4-yl)phenyl)amino)pyrimidin-2-yl)-N-(3,3-difluorocyclobutyl)-5,6,7,8-tetrahydroimidazo[1,2-a]pyrazine-2-carboxamide] | ≤ 50 | > 4500
8 | CC(C)NC(=O)c1cc2c(n1C)CN(c1nccc(Nc3ccc(-c4cn[nH]c4)cc3)n1)CC2 [Compound L009, 6-(4-((4-(1H-pyrazol-4-yl)phenyl)amino)pyrimidin-2-yl)-N-isopropyl-1-methyl-4,5,6,7-tetrahydro-1H-pyrrolo[2,3-c]pyridine-2-carboxamide] | 500 to 4500 | 
9 | Cn1c(C(=O)N2CC(C#N)C2)cc2c1CN(c1nccc(Nc3ccc(-c4cn[nH]c4)cc3)n1)CC2 [Compound L010, 1-(6-(4-((4-(1H-pyrazol-4-yl)phenyl)amino)pyrimidin-2-yl)-1-methyl-4,5,6,7-tetrahydro-1H-pyrrolo[2,3-c]pyridin-2-carbonyl)azetidine-3-carbonitrile] | ≤ 50 | > 4500
10 | O=C(c1ccc2nn(-c3nccc(Nc4ccc(-c5cn[nH]c5)cc4)n3)cc2c1)N1CC(F)(F)C1 [Compound L011, (2-(4-((4-(1H-pyrazol-4-yl)phenyl)amino)pyrimidin-2-yl)-2H-indazol-5-yl)(3,3-difluoroazetidin-1-yl)methanone] | 500 to 4500 | 
11 | Cn1c(C(=O)Nc2ccnnc2)cc2c1CN(c1nccc(Nc3ccc(-c4cn[nH]c4)cc3)n1)CC2 [Compound L012, 6-(4-((4-(1H-pyrazol-4-yl)phenyl)amino)pyrimidin-2-yl)-1-methyl-N-(pyridazin-4-yl)-4,5,6,7-tetrahydro-1H-pyrrolo[2,3-c]pyridine-2-carboxamide] | 50 to 500 | 50 to 500
12 | O=C(O)c1cc2n(c1)CCN(c1nccc(Nc3ccc(-c4cn[nH]c4)cc3)n1)C2 [Compound L013, 2-(4-((4-(1H-pyrazol-4-yl)phenyl)amino)pyrimidin-2-yl)-1,2,3,4-tetrahydropyrrolo[1,2-a]pyrazine-7-carboxylic Acid] | > 4500 | 
13 | CN(C(=O)c1cc2c(n1C)CN(c1nccc(Nc3ccc(-c4cn[nH]c4)cc3)n1)CC2)C1CC(F)(F)C1 [Compound L014, 6-(4-((4-(1H-pyrazol-4-yl)phenyl)amino)pyrimidin-2-yl)-N-(3,3-difluorocyclobutyl)-N,1-dimethyl-4,5,6,7-tetrahydro-1H-pyrrolo[2,3-c]pyridine-2-carboxamide] | > 4500 | 
14 | O=C(c1cn2c(n1)CN(c1nccc(Nc3ccc(-c4cn[nH]c4)cc3)n1)CC2)N1CC(F)(F)C1 [Compound L015] | 50 to 500 | > 4500
15 | Cn1c(C(=O)N2CC(F)(F)C2)cc2c1CN(c1nccc(Nc3ccc(-c4c[nH]nc4F)c(F)c3)n1)CC2 [Compound L016, (3,3-difluoroazetidin-1-yl)(6-(4-((3-fluoro-4-(3-fluoro-1H-pyrazol-4-yl)phenyl)amino)pyrimidin-2-yl)-1-methyl-4,5,6,7-tetrahydro-1H-pyrrolo[2,3-c]pyridin-2-yl)methanone] | ≤ 50 | > 4500
16 | Cn1c(C(=O)N2CC(F)(F)C2)cc2c1C(C)(C)N(c1nccc(Nc3ccc(-c4cn[nH]c4)cc3)n1)CC2 [Compound L018] | 50 to 500 | > 4500
17 | Cn1c(C(=O)N2CC(F)(F)C2)cc2c1CN(c1nccc(Nc3ccc(-c4cn[nH]c4)cc3)n1)CC2(C)C [Compound L020, (6-(4-((4-(1H-pyrazol-4-yl)phenyl)amino)pyrimidin-2-yl)-1,4,4-trimethyl-4,5,6,7-tetrahydro-1H-pyrrolo[2,3-c]pyridin-2-yl)(3,3-difluoroazetidin-1-yl)methanone] | 50 to 500 | > 4500
18 | Cn1c(C(=O)NC2CCN(c3ccncc3Cl)CC2)cc2c1CN(c1nccc(Nc3ccc(-c4cn[nH]c4)cc3)n1)CC2 [Compound L021] | 50 to 500 | > 4500
19 | CN(C(=O)c1cn2c(n1)CN(c1nccc(Nc3ccc(-c4cn[nH]c4)cc3)n1)CC2)C1CC(F)(F)C1 [Compound L022] | 500 to 4500 | 
20 | Cn1c(C(=O)Nc2cnccc2F)cc2c1CN(c1nccc(Nc3ccc(-c4cn[nH]c4)cc3)n1)CC2 [Compound L023] | 50 to 500 | 500 to 4500
21 | Cn1c(C(=O)N2C[C@@H](O)[C@@H](F)C2)cc2c1CN(c1nccc(Nc3ccc(-c4cn[nH]c4)cc3)n1)CC2 [Compound L024] | ≤ 50 | 500 to 4500
22 | O=C(c1cc2n(c1)CCN(c1nccc(Nc3ccc(-c4cn[nH]c4)cc3)n1)C2)N1CC(F)(F)C1 [Compound L025, (2-(4-((4-(1H-pyrazol-4-yl)phenyl)amino)pyrimidin-2-yl)-1,2,3,4-tetrahydropyrrolo[1,2-a]pyrazin-7-yl)(3,3-difluoroazetidin-1-yl)methanone] | > 4500 | 
23 | O=C(c1ccc2c(c1)CN(c1nccc(Nc3ccc(-c4cn[nH]c4)cc3)n1)CC2)N1CC(F)(F)C1 [Compound L028, (2-(4-((4-(1H-pyrazol-4-yl)phenyl)amino)pyrimidin-2-yl)-1,2,3,4-tetrahydroisoquinolin-7-yl)(3,3-difluoroazetidin-1-yl)methanone] | 500 to 4500 | > 4500
24 | O=C(c1ccc2c(c1)CCN(c1nccc(Nc3ccc(-c4cn[nH]c4)cc3)n1)C2)N1CC(F)(F)C1 [Compound L029] | 500 to 4500 | > 4500
25 | Cn1c(C(=O)N2CC(F)(F)C2)cc2c1CN(c1ncc(C#N)c(Nc3ccc(-c4cn[nH]c4)cc3)n1)CC2 [Compound L034, 4-((4-(1H-pyrazol-4-yl)phenyl)amino)-2-(2-(3,3-difluoroazetidin-1-carbonyl)-1-methyl-4,5-dihydro-1H-pyrrolo[2,3-c]pyridin-6(7H)-yl)pyrimidine-5-carbonitrile] | ≤ 50 | > 4500
